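Tested at 5 concentrations; 48 h exposure; 96-well plates; endpoints linearly interpolated, else capped at highest concentration. Here, GI50 denotes the concentration required for 50% inhibition of growth. TGI denotes the concentration required for complete inhibition of growth.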
Key:
Assay in all cases: inhibition of tumour cell growth, NCI panel, 48 h
LXFL 529 NSCLC = test system: LXFL 529 NSCLC
M19-MEL melanoma = test system: M19-MEL melanoma
KM20L2 colon = test system: KM20L2 colon
XF 498 CNS = test system: XF 498 CNS
RXF-631 renal = test system: RXF-631 renal
DMS 273 small cell lung = test system: DMS 273 small cell lung
DMS 114 small cell lung = test system: DMS 114 small cell lung
MDA-N = test system: MDA-N
HOP-18 NSCLC = test system: HOP-18 NSCLC

| Compound | TGI (LXFL 529 NSCLC) [µM] | TGI (M19-MEL melanoma) [µM] | TGI (KM20L2 colon) [µM] | TGI (XF 498 CNS) [µM] | TGI (RXF-631 renal) [µM] | TGI (DMS 273 small cell lung) [µM] | TGI (DMS 114 small cell lung) [µM] | TGI (MDA-N) [µM] | TGI (HOP-18 NSCLC) [µM] | also measured |
| --- | --- | --- | --- | --- | --- | --- | --- | --- | --- | --- |
| CN(C(=O)C12C3C4C1C1C2C3C41C(=O)N(C)C(C)(C)C)C(C)(C)C (configuration not stated) | > 50 | > 50 | > 50 | > 50 | > 50 | > 50 | > 50 | – | – | – |
| CC[C@@]1(O)C(=O)OCc2c1cc1n(c2=O)Cc2cc3c(Cl)c4c(cc3nc2-1)OCO4 | – | – | – | – | – | – | – | > 100 | – | – |
| CC1(C)C(=O)CCC(=O)C(C)(C)C2=CC=C(O2)C(C)(C)C(=O)CCC(=O)C(C)(C)C2=CC=C1O2 | > 100 | > 100 | > 100 | – | – | > 100 | – | – | > 100 | – |
| CC(C)(C)C1CCP(=O)(c2ccccc2)CC1 (configuration not stated) | > 100 | > 100 | > 100 | > 100 | – | > 100 | > 100 | – | > 100 | – |
| COc1cc(-c2ccccc2)c(OC)cc1CCl | – | > 100 | > 100 | > 100 | > 100 | > 100 | > 100 | – | > 100 | – |
| CCOC(=O)C/C(N)=C(\C#N)C(=O)OCC | > 100 | > 100 | > 100 | > 100 | > 100 | > 100 | > 100 | – | > 100 | – |
| Cc1ccc(C)c(NC(=O)/C(=N\N)C(c2cnc3ccc([N+](=O)[O-])cc3n2)[N+](=O)[O-])c1 (configuration not stated) | – | – | – | – | – | – | – | > 100 | – | – |
| NC(=O)c1ccccc1NC(=O)C(=O)Nc1n[nH]c(N)n1 | > 100 | > 100 | > 100 | > 100 | – | > 100 | – | – | > 100 | – |
| O=C(O)/C(=C/c1ccccc1[N+](=O)[O-])c1cccs1 | > 100 | > 100 | > 100 | > 100 | > 100 | > 100 | – | – | > 100 | – |
| O=C(Cc1nc2ccc(C(=O)c3ccccc3)cc2[nH]c1=O)C(=O)Nc1ccc(C(F)(F)F)cc1[N+](=O)[O-] | > 100 | > 100 | > 100 | > 100 | > 100 | > 100 | – | – | > 100 | – |
| Cc1nn2c(=O)n(-c3cccc(-n4nnc5c(-c6ccccc6)c(C)nn5c4=O)c3C)nnc2c1-c1ccccc1 | > 100 | > 100 | 42.1 | 40.1 | – | > 100 | 30.2 | – | > 100 | – |
| O=C(O)CC1C(=O)OC2C3COC(=O)c4cc(O)c(O)c(O)c4-c4c(cc(O)c(O)c4O)C(=O)OC2C(OC(=O)c2cc(O)c(O)c4c2C1C(O)C(=O)O4)C(OC(=O)c1cc(O)c(O)c(O)c1)O3 (configuration not stated) | – | – | – | – | – | – | – | 50.1 | – | – |
| O=C(NCCSSCCNC(=O)/C(Cc1ccc(O)c(Br)c1)=N/O)/C(Cc1ccc(O)c(Br)c1)=N/O | – | – | – | – | – | – | – | 6.99 | – | – |
| Nc1nc2c(c(=O)[nH]1)N=C(COP(=O)(O)OP(=O)(O)O)CN2 | – | – | – | – | – | – | – | > 100 | – | – |
| Cc1cn(C2CC(N=[N+]=[N-])C(CO)O2)c(=O)[nH]c1=O (configuration not stated) | – | – | – | – | – | – | – | > 1000 | – | – |
| CC[C@@]1(OC(=O)C(N)CCC(=O)O)C(=O)OCc2c1cc1n(c2=O)Cc2cc3ccccc3nc2-1 (some centres not stated) | 5.75 | 1.49 | 5.08 | 2.04 | – | 0.29 | 4.42 | – | – | – |
| Cc1no[n+]([O-])c1/C=N/NS(=O)(=O)c1ccccc1 | > 100 | > 100 | > 100 | – | – | – | > 100 | – | > 100 | – |
| CC(=O)n1cc(CC(C)O)c(=O)[nH]c1=O (configuration not stated) | > 100 | > 100 | > 100 | > 100 | > 100 | > 100 | > 100 | – | > 100 | – |
| O=C(O)c1ccccc1-c1ccccc1C(=O)Nc1ccc2c(c1)Cc1ccccc1-2 | – | – | – | – | – | – | – | 77.1 | – | – |
| COc1ccccc1NC(=O)CC(=O)n1nc(-c2ccccc2)c(N=Nc2ccccc2[N+](=O)[O-])c1-c1ccccc1 | > 100 | > 100 | > 100 | > 100 | > 100 | > 100 | > 100 | – | > 100 | – |

| Compound | TGI (LXFL 529 NSCLC) [µM] | TGI (M19-MEL melanoma) [µM] | TGI (KM20L2 colon) [µM] | TGI (XF 498 CNS) [µM] | TGI (RXF-631 renal) [µM] | TGI (DMS 273 small cell lung) [µM] | TGI (DMS 114 small cell lung) [µM] | TGI (MDA-N) [µM] | TGI (HOP-18 NSCLC) [µM] | also measured |
| --- | --- | --- | --- | --- | --- | --- | --- | --- | --- | --- |
| COC(=O)CSc1n[nH]c(-c2ccccc2)n1 | > 100 | > 100 | > 100 | – | – | > 100 | > 100 | – | > 100 | – |
| CC(N)CN.CC(N)CN.[Cl-].[O]=[Os+2]=[O] (configuration not stated) | > 100 | 26.3 | > 100 | – | > 100 | > 100 | > 100 | – | > 100 | GI50 (LXFL 529 NSCLC): 53.1 µM; GI50 (HOP-18 NSCLC): 25.9 µM; GI50 (M19-MEL melanoma): 7.59 µM; GI50 (KM20L2 colon): 89.6 µM; GI50 (RXF-631 renal): 96.9 µM; GI50 (DMS 273 small cell lung): 43.1 µM; GI50 (DMS 114 small cell lung): 47.6 µM |
| CN(C)CCCNC(=O)c1cccc2nc3ccccc3nc12 | > 95.2 | 16.4 | > 100 | 2.1 | > 100 | > 100 | 30 | – | > 86.9 | – |
| COc1ccc(/C=c2\sc3nnc(CCC(=O)Nc4cccc(C(F)(F)F)c4)n3c2=O)cc1 | > 100 | > 100 | > 100 | > 100 | > 100 | > 100 | > 100 | – | > 100 | – |
| C=C(CS(=O)(=O)c1ccccc1)C(=O)OCC | 27 | – | 45.3 | 33.4 | 16.8 | 35.5 | 25.7 | – | – | – |
| O=c1c2cc(Br)ccc2[nH]c(=S)n1-c1ccccc1 | – | > 100 | > 100 | – | > 100 | > 100 | – | – | > 100 | – |
| CC(C)(C)c1cc(Oc2ccc(C#N)c(C#N)c2)cc(C(C)(C)C)c1 | > 100 | > 100 | > 100 | > 100 | > 100 | 27.1 | > 100 | – | > 100 | – |
| COc1cc(-c2ccc(Nc3ccccc3C(=O)O)c(OC)c2)ccc1Nc1ccccc1C(=O)O | > 100 | – | > 100 | > 100 | – | > 100 | > 100 | 97.5 | > 100 | – |
| CC(=O)NC1CCCN(O)C(=O)/C=C(/C)CCOC(=O)C(NC(C)=O)CCCN(O)C(=O)/C=C(/C)CCOC(=O)C(NC(C)=O)CCCN(O)C(=O)/C=C(/C)CCOC1=O.[Fe] (configuration not stated) | – | – | – | – | – | – | – | > 100 | – | GI50 (MDA-N): > 100 µM |
| O=S(=O)(CC(O)C(Cl)(Cl)Cl)NNc1ccccc1 (configuration not stated) | – | – | – | – | – | – | – | > 100 | – | – |
| O=C1/C(=C\c2ccc([N+](=O)[O-])cc2)CS(=O)(=O)C/C1=C/c1ccc([N+](=O)[O-])cc1 | – | – | – | – | – | – | – | 1.63 | – | GI50 (MDA-N): 0.305 µM |
| C[N+](C)(C)CC(=O)N/N=C/c1oc(-c2cccc([N+](=O)[O-])c2)c(-c2cccc([N+](=O)[O-])c2)c1[N+](=O)[O-] | – | > 100 | > 100 | – | > 100 | – | > 100 | – | – | – |
| COc1ccc2oc(-c3cc4cc(OC)ccc4o3)cc2c1 | > 100 | – | > 100 | > 100 | > 100 | > 100 | – | – | – | – |
| [CH3][Sn]([CH3])([CH3])[O]C(=O)C(O)c1ccccc1 (configuration not stated) | > 28.4 | 9.6 | 9.42 | 20.9 | – | 14 | 31.2 | 15.9 | > 100 | GI50 (LXFL 529 NSCLC): 2.98 µM; GI50 (HOP-18 NSCLC): > 100 µM; GI50 (M19-MEL melanoma): 3.31 µM; GI50 (MDA-N): 3.62 µM; GI50 (KM20L2 colon): 2.98 µM; GI50 (XF 498 CNS): 2.92 µM; GI50 (DMS 273 small cell lung): 3.01 µM; GI50 (DMS 114 small cell lung): 5.78 µM |
| CCOc1ccc(/C=N\N2C(=O)c3ccccc3C2=O)cc1 | > 100 | > 100 | > 100 | > 100 | > 100 | > 100 | > 100 | – | > 100 | – |
| Cc1ccc2nc3sc(=O)sc3nc2c1 | – | – | – | – | – | – | – | 32 | – | – |
| O=NNc1ccc(Sc2ccc3ccccc3c2)cn1 | – | – | – | – | – | – | – | > 100 | – | – |
| COc1cccc(C(C#N)NC23CC4CC(CC(C4)C2)C3)c1 (configuration not stated) | – | – | – | – | – | – | – | > 100 | – | – |
| CN=c1ss/c(=N\C(=S)N(C)C)n1C1CCCCC1 | > 31.6 | > 31.6 | > 31.6 | > 31.6 | > 100 | > 31.6 | > 31.6 | – | > 31.6 | – |
| CC1=C(C(=O)Nc2cccc(C(F)(F)F)c2)C(c2ccccc2F)C(C(=O)Nc2cccc(C(F)(F)F)c2)=C(C)N1 | 19.2 | 21.3 | 18.4 | 14.6 | 23.2 | – | 14.2 | – | – | – |
